The values below come from US20100316655A1, “COMPOUNDS WITH MDR1-INVERSE ACTIVITY” (priority 2008, published 2010).

Where only a bound is given, the exact number is not on record here.

Assay [1] deals with KB-3-1 adenocarcinoma cells. Briefly: MTT cytotoxicity assay, parental P-gp-negative KB-3-1 cells. It is filed as cell-based, human. The method, then: (§1) Exemplary compounds were also tested against the KB-V1 adenocarcinoma cell line that expresses high levels of P-gp (the protein product of MDR1). […] MDR1 selectivity is determined by the ratio of IC50 against KB-3-1 cells divided by its IC50 against KB-V1 cells.
(§2) This example describes evaluation of compounds using the MTT cytotoxicity assay. Cell survival was measured by the MTT (3-(4,5-dimethylthiazol-2-yl)-2,5-diphenyltetrazolium bromide) assay as previously described by Ludwig, J. A. et al. Selective toxicity of NSC73306 in MDR1-positive cells as a new strategy to circumvent multidrug resistance in cancer. […] Briefly, cells were seeded in […] of growth medium at a density of 5000 cells/well in 96-well plates and allowed to establish for 24 hours, at which time serially diluted drugs were added in an additional […] growth medium. Cells were then incubated for 72 hours at 37° C. in humidified 5% CO2, at which time the growth media was drawn, and replaced with MTT in IMDM growth media and incubated for 4 hours. The MTT solution was then drawn from the wells, and […] acidified ethanol solution was added to each well and after 15 minutes absorption at 560 nm was measured.

Assay [2] relates to KB-V1 adenocarcinoma cell line. Briefly: MTT cytotoxicity assay, P-gp (MDR1) expressing KB-V1 cells; MDR1 selectivity vs KB-3-1. It is filed as cell-based, human. Particulars: for IC50: MTT, 72 hours; for MDR1 select. / MDR1 selectivity: ratio of IC50 against KB-3-1 divided by IC50 against KB-V1; for MDR1 selectivity: >1 = MDR1-inverse activity. The method, then:
as §1, §2
(In general: Tetrazolium assays rely on reduction of a dye to a coloured formazan, in cell work by metabolically active cells.)

Setting [3] is: Homo sapiens, KB 3-1, Table 2, 72 hours, unit inferred.
Setting [4] is: Homo sapiens, KB-V1, Table 2, unit inferred.
Setting [5] is: Table 2, 72 hours, unit inferred.
Where [6] appears, read: Homo sapiens, Table 1, 72 hours, KB-3-1 (P-gp-negative).
The mark [7] stands for this setting: Homo sapiens, Table 1, KB-V1 (high P-gp).

As for `O=C1Nc2ccccc2/C1=N/NC(=S)Nc1ccc(F)cc1` [Compound M14, 1-Isatin-4-(4′-fluorophenyl)thiosemicarbazone], the concentration for half-maximal inhibition (IC50) in assay [1] (setting [3]) was 14.2 µM; in assay [2] (setting [4]) it was 1.92 µM. In addition, in assay [2] (Table 2), the MDR1 select. was found to be 7.36.
For the compound `CC(C)NC(=S)NN=C1C(=O)Nc2ccccc21` [Compound M15, 1-Isatin-4-isopropyl-3-thiosemicarbazone], the half-maximal inhibitory concentration (IC50) in assay [1] (setting [5]) came out at 39.4 µM; in assay [2] (Table 2, unit inferred), 10.2 µM. Moreover, the MDR1 select. in assay [2] (Table 2) is 3.84.
For `Cc1ccc(NC(=S)N/N=C2\C(=O)Nc3ccccc32)cc1` [Compound M16, 1-Isatin-4-(4′-methylphenyl)thiosemicarbazone], the half-maximal inhibitory concentration (IC50) is 24 µM in assay [1] (setting [3]) and 2.6 µM in assay [2] (setting [4]). For the same compound, in assay [2] (Table 2), the MDR1 select. is reported as 9.23.
In the same order, the values of `O=C1Nc2ccccc2/C1=N/NC(=S)Nc1ccc([N+](=O)[O-])cc1` [Compound M17, 1-Isatin-4-(4′-nitrophenyl)thiosemicarbazone] are 17.2 µM, 2.07 µM and 8.27.
Take `COc1ccccc1NC(=S)NN=C1C(=O)Nc2ccccc21` [Compound M18, 1-isatin-4-(2′-methoxyphenyl)-3-thiosemicarbazone]: the IC50 in assay [1] (setting [5]) was 4.96 µM; in assay [2] (Table 2, unit inferred) it was 2.69 µM. Also, the MDR1 select. in assay [2] (Table 2) came out at 1.84.
On the same counts, the results for `O=C1Nc2ccccc2C1=NNC(=S)Nc1ccc(C(=O)O)cc1` [Compound M19, 1-isatin-4-(4′-carboxyphenyl)-3-thiosemicarbazone] are greater than 50 µM, greater than 50 µM and 1.00.
Consider `O=C1Nc2ccccc2C1=NNC(=S)Nc1cccc2ccccc12` [Compound M20, 1-isatin-4-(1′-napthyl)-3-thiosemicarbazone], for which the 50% inhibitory concentration (IC50) in assay [1] (setting [5]) is 5.12 µM; in assay [2] (Table 2, unit inferred), 2.21 µM. Also, the MDR1 select. in assay [2] (Table 2) is on record as 2.32.
On the same counts, the results for `O=C1Nc2ccccc2C1=NNC(=S)Nc1ccc(Oc2ccccc2)cc1` [Compound M21, 1-Isatin-4-(4-phenoxybenzene)-3-thiosemicarbazone] are 5.72 µM, 1.67 µM and 3.44.
For the compound `O=C1Nc2ccccc2C1=NNC(=S)NC12CC3CC(CC(C3)C1)C2` [Compound M22, 1-isatin-4-(1′-adamantyl)-3-thiosemicarbazone], the IC50 turned out to be 3.16 µM in assay [1] (setting [5]) and 1.02 µM in assay [2] (Table 2, unit inferred). Moreover, the MDR1 select. in assay [2] (Table 2) was determined as 3.09.
In the same order, the values of `COc1cc(NC(=S)NN=C2C(=O)Nc3ccccc32)cc(OC)c1OC` [Compound M23, 1-isatin-4-(3′,4′,5′-trimethoxyphenyl)-3-thiosemicarbazone] are 11.1 µM, 3.49 µM and 3.18.
On to `COc1ccc(NC(=S)NN=C2C(=O)Nc3ccccc32)cc1` [NSC73306, 1-Isatin-4-(4′ methoxyphenyl)thiosemicarbazone, reference compound], for which the 50% inhibitory concentration (IC50) worked out at 14.2 µM in assay [1] (setting [5]) and 3.3 µM in assay [2] (Table 2, unit inferred). Besides, the “MDR1-inverse selectivity (in words)” value in assay [2] (Example 3, Table 1, KB-V1 vs KB-3-1) was “MDR1-inverse selectivity”. Also, the MDR1 select. in assay [2] (Table 2) is on record as 4.3.
Turning to `O=C1Nc2ccc(Br)cc2/C1=N/NC(=S)Nc1ccc(F)cc1` [drawing 22], the IC50 was 13.1 ± 4.8 µM in assay [1] (setting [6]) and 5.8 ± 2.5 µM in assay [2] (setting [7]). In addition, the MDR1 selectivity in assay [2] (Table 1) is 2.3.
In the same order, the values of `O=C1Nc2ccc(Br)cc2/C1=N/NC(=S)Nc1ccc([N+](=O)[O-])cc1` [drawing 23] are 28.4 ± 5.2 µM, 4 ± 0.6 µM and 7.1.
Take `COc1ccc(NC(=S)N/N=C2\C(=O)Nc3ccc(F)cc32)cc1` [drawing 34]: the 50% inhibitory concentration (IC50) in assay [1] (setting [6]) worked out at 39.3 ± 23.3 µM; in assay [2] (setting [7]), 5.2 ± 1.1 µM. For the same compound, in assay [2] (Table 1), the MDR1 selectivity was 7.5.
As to `COc1ccc(NC(=S)N/N=C2\C(=O)N(C)c3ccccc32)cc1` [drawing 35], the IC50 in assay [1] (setting [6]) worked out at 19.6 ± 1.7 µM; in assay [2] (setting [7]), 9.3 ± 2.8 µM. The MDR1 selectivity in assay [2] (Table 1) turned out to be 2.1.
On the same counts, the results for `COc1ccc(NC(=S)N/N=C/c2ccccn2)cc1` [drawing 37] are 3.4 ± 1.5 µM, 2.4 ± 0.5 µM and 1.4.
On the same counts, the results for `COc1ccc(NC(=S)N/N=C2\C(=O)Nc3ccc([N+](=O)[O-])cc32)cc1` [drawing 39] are 26.3 ± 5.5 µM, 6.7 ± 2.9 µM and 4.0.
In the same order, the values of `C=CCNC(=S)N/N=C1\C(=O)Nc2ccccc21` [drawing 40] are 26.1 ± 2.6 µM, 20.7 ± 7.7 µM and 1.3.

In general, IC50 refers to the concentration needed to halve the response being measured.
